Experiment in all cases: NCI tumour cell line growth inhibition, 48 h
Test [1] deals with PC-3 prostate.
The subject of test [2] is SK-OV-3 ovarian.
The subject of test [3] is MDA-MB-231 breast.
Test [4] concerns SNB-19 CNS.
The subject of test [5] is RPMI-8226 leukemia.
Test [6] has as its system KM12 colon.
For test [7], the system named is HCT-15 colon.
For test [8], the system named is M14 melanoma.
Test [9] concerns T-47D breast.
The subject of test [10] is COLO 205 colon.

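Results reflect a 48-hour exposure of cells in 96-well plates to compound at five concentrations. Abbreviation: GI50, concentration required for 50% inhibition of growth. TGI: total growth inhibition.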 Some results are limits rather than exact numbers.

As for `NC(=O)c1c(NC(=O)c2ccccc2)sc2c1CCC(=O)C2`, the GI50 in [1] is 0.319 µM; in test [2], 2.91 µM; in test [3], 2.3 µM; in test [4] it was 3.29 µM; in test [5], 0.248 µM; in [6], 1.36 µM. The GI50 in test [7] is 0.375 µM. Moreover, the TGI in test [1] is 17.6 µM; in test [2], over 100 µM; in test [3] it was 22.9 µM; in test [4], over 100 µM; in test [5], 0.751 µM; in [6], 5.61 µM. Also, the TGI in test [7] was found to be 1.93 µM.
As for `O=C1CC2(CCC(O)(c3ccc4ccccc4c3)C(C(=O)c3ccc4ccccc4c3)C2)C(=O)c2ccccc2N1` (stereo not drawn), the TGI in test [1], in test [2], in [8], in test [9], in [10] and in test [3] was over 100 µM each time. In test [4], this compound displayed a TGI of over 100 µM.
For the compound `C[n+]1c(/C=C/c2c(O)ccc3ccccc23)ccc2ccccc21`, the GI50 in test [1] is 4 µM; in [8] it was 5.8 µM; in [9], 4.32 µM; in test [10] it was 4.07 µM; in test [3], 5.27 µM; in test [4], 6.56 µM. The GI50 in test [5] is 1.73 µM; in test [6] it was 4.33 µM; in test [7], 5.84 µM. Moreover, the TGI stood at 11.7 µM in test [1]; 12.8 µM in [8]; 14.7 µM in test [9]; 10.8 µM in test [10]; 12.2 µM in test [3]; 14.8 µM in test [4]. Further, the results for the TGI in [5], in test [6] and in test [7] were 10.1 µM, 11.2 µM and 13.1 µM, respectively.
Take `COc1cc2c(cc1OC)C(C(c1ccccc1)c1ccccc1)N(C)CC2` (stereo not drawn): the TGI in [2] was over 100 µM; in test [10], 33.5 µM; in [4] it was over 100 µM; in test [5], over 100 µM; in test [6], over 100 µM; in [7], over 100 µM.
For `C[N+](C)([O-])CCOc1cc2c(c3ccccc13)-c1ccccc1C2=O`, the TGI in [2] is over 100 µM; in [10], 32.3 µM; in [4], over 55.1 µM; in test [5], 44.1 µM; in test [6] it was 66.5 µM; in test [7] it was over 100 µM.
`O=c1oc2cc(O)ccc2c(O)c1C(c1ccccc1)c1c(O)c2ccc(O)cc2oc1=O`: the TGI in test [1], in [2], in [8], in test [9], in [10] and in test [3] was over 100 µM each time. The compound further registered a TGI in test [7] of over 100 µM.

These data come from PubChem BioAssay (NCI).
